According to patent US20260365670A1, “EGFR INHIBITORS AND USES THEREOF” (DIZAL (JIANGSU) PHARMACEUTICAL CO., LTD., priority 2022, published 2026):
Where two headings read alike, the source gives them in different places.

Legend:
EGFR Exon19Del = molecular target: T1, EGFR Exon19Del (Homo sapiens, UniProt P00533, DEL746-750); assay: Inhibition of EGFR Exon19Del biochemical enzymatic activity (HTRF); settings: read-out: IC50 @Del19
T1 construct: purchased Carna Bio
In short: (§1)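 Following 1 h at room temperature with titrated compound, 1 mM ATP and 1 μM biotin-TK peptide (Mg2+/Mn2+, CHAPS, DTT, 0.5% DMSO buffer), EDTA-containing detection reagent terminated each enzyme reaction. Time-resolved fluorescence (ex 320, em 665/615 nm) ratio tracked activity. IC50 values came from four-parameter fits.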

EGFR L858R = molecular target: T2, EGFR L858R (Homo sapiens, UniProt P00533, L858R); assay: Inhibition of EGFR L858R biochemical enzymatic activity (HTRF); settings: 1 mM ATP
T2 construct: purchased Carna Bio
T2 sequence (P00533 25-1210 L858R): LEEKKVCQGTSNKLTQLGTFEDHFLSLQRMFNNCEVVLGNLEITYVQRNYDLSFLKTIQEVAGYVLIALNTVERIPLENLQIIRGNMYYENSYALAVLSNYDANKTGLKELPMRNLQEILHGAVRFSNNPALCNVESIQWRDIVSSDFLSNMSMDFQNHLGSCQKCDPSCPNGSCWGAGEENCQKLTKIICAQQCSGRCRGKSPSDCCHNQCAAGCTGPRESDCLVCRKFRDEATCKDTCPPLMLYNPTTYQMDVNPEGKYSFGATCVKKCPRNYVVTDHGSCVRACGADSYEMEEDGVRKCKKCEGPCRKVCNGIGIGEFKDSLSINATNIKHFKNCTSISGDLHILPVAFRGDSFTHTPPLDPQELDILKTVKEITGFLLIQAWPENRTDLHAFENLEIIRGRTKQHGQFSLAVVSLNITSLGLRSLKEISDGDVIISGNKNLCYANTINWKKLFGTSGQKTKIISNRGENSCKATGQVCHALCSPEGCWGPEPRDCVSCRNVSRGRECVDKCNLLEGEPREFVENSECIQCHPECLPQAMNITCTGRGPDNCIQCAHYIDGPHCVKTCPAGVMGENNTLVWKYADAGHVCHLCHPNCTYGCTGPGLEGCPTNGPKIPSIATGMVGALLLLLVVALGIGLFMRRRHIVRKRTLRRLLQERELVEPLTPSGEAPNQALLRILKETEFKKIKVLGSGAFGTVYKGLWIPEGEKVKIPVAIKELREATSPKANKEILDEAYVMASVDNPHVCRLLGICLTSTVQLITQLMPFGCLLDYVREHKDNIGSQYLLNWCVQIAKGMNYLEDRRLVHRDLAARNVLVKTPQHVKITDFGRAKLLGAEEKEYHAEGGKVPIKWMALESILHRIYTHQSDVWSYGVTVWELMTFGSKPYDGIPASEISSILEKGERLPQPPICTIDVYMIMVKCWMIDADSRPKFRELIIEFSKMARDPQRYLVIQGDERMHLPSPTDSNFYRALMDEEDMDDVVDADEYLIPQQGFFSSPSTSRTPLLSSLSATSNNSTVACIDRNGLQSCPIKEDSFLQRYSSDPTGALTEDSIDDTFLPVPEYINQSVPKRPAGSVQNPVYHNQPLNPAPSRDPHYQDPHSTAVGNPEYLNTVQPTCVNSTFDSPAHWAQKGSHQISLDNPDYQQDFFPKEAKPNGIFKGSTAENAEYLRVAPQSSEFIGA
In short: as §1

EGFR Exon19Del/T790M = molecular target: T3, EGFR Exon19Del/T790M (Homo sapiens, UniProt P00533, DEL746-750/T790M); assay: Inhibition of EGFR Exon19Del/T790M biochemical enzymatic activity (HTRF); settings: 1 mM ATP
T3 construct: purchased Carna Bio
In short: as §1

[1] = molecular target: T4, EGFR[T790M/C797S/d746-750] (Homo sapiens, UniProt P00533, C797S/DEL746-750/T790M); assay: Inhibition of EGFR[T790M/C797S/d746-750] biochemical enzymatic activity (HTRF)
T4 construct: purchased Carna Bio
T4 sequence (P00533 with tags, fused parts or gaps DEL746-750/T790M/C797S limits assumed): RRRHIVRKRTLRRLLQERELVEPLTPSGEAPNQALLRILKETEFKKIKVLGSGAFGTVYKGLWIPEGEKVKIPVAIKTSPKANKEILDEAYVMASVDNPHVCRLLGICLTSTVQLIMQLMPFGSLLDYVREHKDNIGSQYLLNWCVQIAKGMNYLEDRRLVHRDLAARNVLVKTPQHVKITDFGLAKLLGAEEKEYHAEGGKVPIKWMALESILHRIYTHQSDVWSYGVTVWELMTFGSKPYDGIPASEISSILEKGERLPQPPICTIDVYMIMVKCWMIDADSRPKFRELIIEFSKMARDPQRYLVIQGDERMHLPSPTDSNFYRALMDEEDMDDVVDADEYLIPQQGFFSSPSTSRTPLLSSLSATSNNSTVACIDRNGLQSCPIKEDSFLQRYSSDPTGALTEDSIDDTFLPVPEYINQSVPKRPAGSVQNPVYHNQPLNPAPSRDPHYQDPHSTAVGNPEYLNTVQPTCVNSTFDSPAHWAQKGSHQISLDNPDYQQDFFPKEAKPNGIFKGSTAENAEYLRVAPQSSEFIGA
In short: as §1

EGFR (d746-750 C797S) = molecular target: T5, EGFR (d746-750 C797S) (Homo sapiens, UniProt P00533, C797S/DEL746-750); assay: Inhibition of EGFR (d746-750 C797S) biochemical enzymatic activity (HTRF); settings: 1 mM ATP
T5 construct: purchased signalchem
T5 sequence (P00533 with tags, fused parts or gaps DEL746-750/C797S limits assumed): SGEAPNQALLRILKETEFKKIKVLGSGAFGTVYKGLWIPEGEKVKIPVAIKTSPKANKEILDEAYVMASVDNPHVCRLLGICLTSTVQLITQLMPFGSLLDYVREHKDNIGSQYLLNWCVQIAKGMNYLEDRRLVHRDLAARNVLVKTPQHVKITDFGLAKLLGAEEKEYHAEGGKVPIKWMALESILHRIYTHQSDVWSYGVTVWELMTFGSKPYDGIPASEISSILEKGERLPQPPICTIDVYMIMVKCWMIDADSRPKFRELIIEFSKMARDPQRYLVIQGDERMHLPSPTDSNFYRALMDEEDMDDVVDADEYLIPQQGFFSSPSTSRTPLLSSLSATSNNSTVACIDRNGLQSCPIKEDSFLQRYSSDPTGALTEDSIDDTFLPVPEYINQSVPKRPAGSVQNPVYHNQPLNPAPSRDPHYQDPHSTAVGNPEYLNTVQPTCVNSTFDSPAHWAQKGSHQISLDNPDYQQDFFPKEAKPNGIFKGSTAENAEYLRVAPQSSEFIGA
In short: as §1

[2] = tested on: Ba/F3 cells expressing EGFR mutations; assay: Cell proliferation assay, Ba/F3 cells expressing EGFR mutations (CellTiter-Glo, 72 hours); format: cell-based; settings: Mus musculus, BaF3, 72 h
In short: (§2)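 Luminescent viable-cell counts were taken on a day 0 plate at dosing and again at endpoint. Proliferation was calculated as (sample − G0)/(DMSO − G0). Seeding was 5000 Ba/F3 or 500 PC-9 cells per well in RPMI1640, followed by overnight attachment and serial compound dilutions. The GI50 was fitted.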

EGFR L858R/T790M = molecular target: T6, EGFR L858R/T790M (Homo sapiens, UniProt P00533, L858R/T790M); assay: Inhibition of EGFR L858R/T790M biochemical enzymatic activity (HTRF); settings: 1 mM ATP
T6 construct: purchased Carna Bio
T6 sequence (P00533 25-1210 T790M/L858R): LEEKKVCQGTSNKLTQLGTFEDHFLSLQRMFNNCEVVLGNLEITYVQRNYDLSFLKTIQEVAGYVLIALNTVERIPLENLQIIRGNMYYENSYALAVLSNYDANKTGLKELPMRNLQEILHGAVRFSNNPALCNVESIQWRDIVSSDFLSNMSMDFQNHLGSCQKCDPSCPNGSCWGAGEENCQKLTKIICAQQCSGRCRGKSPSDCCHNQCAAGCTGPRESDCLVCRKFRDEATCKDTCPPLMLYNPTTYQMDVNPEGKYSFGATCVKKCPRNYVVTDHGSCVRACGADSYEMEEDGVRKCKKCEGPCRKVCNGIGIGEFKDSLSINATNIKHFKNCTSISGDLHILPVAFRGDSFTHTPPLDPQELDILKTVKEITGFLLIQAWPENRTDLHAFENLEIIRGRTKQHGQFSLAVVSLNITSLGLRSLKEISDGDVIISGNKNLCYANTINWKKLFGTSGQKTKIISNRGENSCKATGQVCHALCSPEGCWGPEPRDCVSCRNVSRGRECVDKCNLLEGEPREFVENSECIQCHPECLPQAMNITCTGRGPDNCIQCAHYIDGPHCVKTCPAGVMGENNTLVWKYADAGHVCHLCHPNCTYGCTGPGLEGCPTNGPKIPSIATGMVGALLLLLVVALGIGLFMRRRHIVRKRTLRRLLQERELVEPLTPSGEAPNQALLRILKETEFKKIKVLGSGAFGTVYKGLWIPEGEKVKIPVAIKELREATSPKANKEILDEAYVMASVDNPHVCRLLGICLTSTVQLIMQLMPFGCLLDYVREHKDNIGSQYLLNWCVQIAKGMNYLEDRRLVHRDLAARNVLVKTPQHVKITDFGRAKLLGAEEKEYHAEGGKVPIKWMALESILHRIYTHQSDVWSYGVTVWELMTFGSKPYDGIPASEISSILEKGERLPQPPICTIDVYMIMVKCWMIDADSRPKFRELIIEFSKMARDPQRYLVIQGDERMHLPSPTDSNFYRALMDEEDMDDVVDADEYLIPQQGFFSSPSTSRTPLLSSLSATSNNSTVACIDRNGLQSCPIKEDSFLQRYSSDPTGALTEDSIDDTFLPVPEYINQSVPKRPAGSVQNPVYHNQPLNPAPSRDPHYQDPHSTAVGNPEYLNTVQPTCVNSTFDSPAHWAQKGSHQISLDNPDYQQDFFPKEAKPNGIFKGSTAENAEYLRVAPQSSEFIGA
In short: as §1

EGFR[T790M/C797S/L858R] = molecular target: T7, EGFR[T790M/C797S/L858R] (Homo sapiens, UniProt P00533, C797S/L858R/T790M); assay: Inhibition of EGFR[T790M/C797S/L858R] biochemical enzymatic activity (HTRF); settings: 1 mM ATP
T7 construct: purchased Carna Bio
In short: as §1

A-431 = assay: Cell proliferation assay, A-431 cells (GI50, Table 6); format: cell-based; settings: Homo sapiens, A-431, A-431 cells
EGFR wild type = molecular target: T8, EGFR wild type (Homo sapiens, UniProt P00533); assay: Inhibition of EGFR wild type biochemical enzymatic activity (HTRF); settings: 1 mM ATP
T8 construct: purchased Carna Bio
T8 sequence (P00533 25-1210): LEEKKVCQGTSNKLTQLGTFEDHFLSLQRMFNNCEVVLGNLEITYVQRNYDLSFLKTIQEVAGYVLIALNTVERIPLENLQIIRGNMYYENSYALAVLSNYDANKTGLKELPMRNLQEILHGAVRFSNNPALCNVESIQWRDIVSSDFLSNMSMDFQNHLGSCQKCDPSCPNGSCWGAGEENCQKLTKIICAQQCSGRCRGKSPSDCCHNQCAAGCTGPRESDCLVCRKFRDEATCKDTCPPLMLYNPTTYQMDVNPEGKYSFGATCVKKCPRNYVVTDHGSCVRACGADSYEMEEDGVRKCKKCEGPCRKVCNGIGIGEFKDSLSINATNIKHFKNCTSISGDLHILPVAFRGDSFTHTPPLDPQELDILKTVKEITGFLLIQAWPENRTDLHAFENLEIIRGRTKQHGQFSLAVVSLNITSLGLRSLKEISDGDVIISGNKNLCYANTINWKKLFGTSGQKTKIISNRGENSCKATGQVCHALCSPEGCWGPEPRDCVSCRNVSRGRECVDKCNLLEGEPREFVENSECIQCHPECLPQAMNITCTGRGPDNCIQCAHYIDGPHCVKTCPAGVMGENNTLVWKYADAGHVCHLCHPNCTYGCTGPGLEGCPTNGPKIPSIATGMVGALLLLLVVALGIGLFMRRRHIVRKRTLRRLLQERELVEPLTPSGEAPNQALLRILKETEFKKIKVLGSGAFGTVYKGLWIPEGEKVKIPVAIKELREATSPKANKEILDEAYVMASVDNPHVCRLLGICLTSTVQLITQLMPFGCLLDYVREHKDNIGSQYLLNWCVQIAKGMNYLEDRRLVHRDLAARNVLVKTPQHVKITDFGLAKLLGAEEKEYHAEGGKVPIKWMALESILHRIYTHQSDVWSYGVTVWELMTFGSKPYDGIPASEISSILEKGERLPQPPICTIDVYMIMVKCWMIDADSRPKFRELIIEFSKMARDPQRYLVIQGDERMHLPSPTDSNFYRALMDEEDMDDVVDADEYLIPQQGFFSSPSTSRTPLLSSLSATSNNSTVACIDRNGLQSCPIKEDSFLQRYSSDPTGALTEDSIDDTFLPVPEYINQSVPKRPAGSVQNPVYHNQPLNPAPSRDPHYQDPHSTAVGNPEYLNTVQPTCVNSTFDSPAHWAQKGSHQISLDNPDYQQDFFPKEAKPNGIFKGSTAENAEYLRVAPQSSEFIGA
In short: as §1

EGFR (C797S L858R) = molecular target: T9, EGFR (C797S L858R) (Homo sapiens, UniProt P00533, C797S/L858R); assay: Inhibition of EGFR (C797S L858R) biochemical enzymatic activity (HTRF); settings: 1 mM ATP
T9 construct: purchased signalchem
In short: as §1

PC-9 = assay: Cell proliferation assay, PC-9 cells (CellTiter-Glo, 72 hours); format: cell-based; settings: Homo sapiens, PC-9, 72 h, PC9 cells, read-out: GI50 PC9
In short: as §2

[3] = EGFR Exon19Del, 1 mM ATP, 1 h at room temperature
[4] = 1 h at room temperature, read-out: IC50 @L858R
[5] = EGFR Exon19Del/T790M, 1 h at room temperature, read-out: IC50 @Del19-T790M
[6] = EGFR[T790M/C797S/d746-750], 1 mM ATP, 1 h at room temperature, read-out: IC50 @T790M - C797S - Del19
[7] = EGFR (d746-750 C797S), 1 h at room temperature, read-out: IC50 @Del19-C797S
[8] = BaF3 cells, EGFR DEL19 - C797S, read-out: GI50 DEL19 - C797S/BaF3
[9] = BaF3 cells, EGFR DEL19 - T790-C797S, read-out: GI50 DEL19 - T790-C797S/BaF3
[10] = BaF3 cells, EGFR L858R - C797S, read-out: GI50 L858R - C797S/BaF3
[11] = BaF3 cells, EGFR L858R - T790-C797S, read-out: GI50 L858R - T790-C797S/BaF3
[12] = BaF3 cells, EGFR L858R - T790M, read-out: GI50 L858R - T790M/BaF3
[13] = BaF3 cells, EGFR L858R, read-out: GI50 L858R/BaF3
[14] = EGFR DEL19 - T790M, read-out: GI50 DEL19 - T790M
[15] = EGFR L858R/T790M, 1 h at room temperature, read-out: IC50 @L858R-T790M
[16] = EGFR[T790M/C797S/L858R], 1 h at room temperature, read-out: IC50 @T790M- C797S - L858R
[17] = EGFR wild type, 1 h at room temperature, read-out: IC50 @WT
[18] = EGFR (C797S L858R), 1 h at room temperature, read-out: IC50 @L858-C797S
[19] = EGFR Del19, 1 mM ATP, 1 h, room temperature
[20] = 1 h, room temperature, read-out: IC50 (nM) @L858R
[21] = EGFR Del19-T790M, 1 h, room temperature, read-out: IC50 (nM) @Del19-T790M
[22] = EGFR T790M-C797S-Del19, 1 mM ATP, 1 h, room temperature, read-out: IC50 (nM) @T790M - C797S - Del19
[23] = EGFR Del19-C797S, 1 h, room temperature, read-out: IC50 (nM) @Del19-C797S
[24] = EGFR L858R-T790M, 1 h, room temperature, read-out: IC50 (nM) @L858R-T790M
[25] = EGFR T790M-C797S-L858R, 1 h, room temperature, read-out: IC50 (nM) @T790M- C797S - L858R
[26] = EGFR WT, 1 h, room temperature, read-out: IC50 (nM) @WT
[27] = EGFR L858-C797S, 1 h, room temperature, read-out: IC50 (nM) @L858-C797S

Row | IC50 (EGFR Exon19Del; [3]) | IC50 (EGFR L858R; [4]) | IC50 (EGFR Exon19Del/T790M; [5]) | IC50 [1, 6] | IC50 (EGFR (d746-750 C797S); [7]) | GI50 [2, 8] | GI50 [2, 9] | GI50 [2, 10] | GI50 [2, 11] | GI50 [2, 12] | GI50 [2, 13] | GI50 [2, 14] | IC50 (EGFR L858R/T790M; [15]) | IC50 (EGFR[T790M/C797S/L858R]; [16]) | GI50 (A-431) | IC50 (EGFR wild type; [17]) | IC50 (EGFR (C797S L858R); [18]) | GI50 (PC-9) | IC50 (EGFR Exon19Del; [19]) | IC50 (EGFR L858R; [20]) | SMILES | further results
1 | 24 nM | 734 nM | 5.8 nM | 3.7 nM | 10 nM | 27 nM | 8 nM | 234 nM | 15 nM | 29 nM | 200 nM | 10 nM | 7.6 nM | 2.9 nM | 3420 nM | > 5000 nM | 159 nM | 186 nM | – | – | Cc1cc2cc(n1)-c1cnn(C)c1OCCN1CC3CCC(CC3)(C1)n1c(nc3ccc(N4CCN(C5CC5)CC4)cc31)NC2=O [Example B36] | –
2 | – | – | – | – | – | 12 nM | 45 nM | 32 nM | 20 nM | 59 nM | 5.8 nM | 27 nM | – | – | 6110 nM | – | – | 25 nM | 13 nM | 65 nM | CN1CCC2(CC1)CCN(c1ccc3nc4n(c3c1)C13CCC(CC1)CN(CCOc1c(cnn1C)-c1cc(cn(C)c1=O)C(=O)N4)C3)C2 [Example A123] | IC50 (EGFR Exon19Del/T790M; [21]): 13 nM; IC50 [1, 22]: 11 nM; IC50 (EGFR (d746-750 C797S); [23]): 9.4 nM; IC50 (EGFR L858R/T790M; [24]): 223 nM; IC50 (EGFR[T790M/C797S/L858R]; [25]): 23 nM; IC50 (EGFR wild type; [26]): > 5000 nM; IC50 (EGFR (C797S L858R); [27]): 57 nM
3 | 23 nM | 320 nM | 9.5 nM | 7.8 nM | 14 nM | 17 nM | 5 nM | 116 nM | 11 nM | 34 nM | 85 nM | 5 nM | 17 nM | 5.9 nM | 7810 nM | > 5000 nM | 145 nM | 98 nM | – | – | Cc1cc2cc(n1)-c1cnn(C)c1OCCN1CC3CCC(CC3)(C1)n1c(nc3ccc(N4CC[C@H](N(C)C)C4)cc31)NC2=O [Example B28] | –
4 | – | – | – | – | – | 18 nM | 4.7 nM | 153 nM | 10 nM | 14 nM | 125 nM | 5 nM | – | – | 3160 nM | – | – | 102 nM | 47 nM | 320 nM | Cc1cc2cc(n1)-c1cnn(C)c1OCCN1CC3CCC(CC3)(C1)n1c(nc3ccc(N4CCOCC4)cc31)NC2=O [Example B2, 15,21-Dimethyl-5-(morpholin-4-yl)-23-oxa-2,9,11,16,20,21,26-heptaazaheptacyclo[26.2.2.1^{1,26}.1^{13,17}.0^{2,10}.0^{3,8}.0^{18,22}]tetratriaconta-3,5,7,9,13,15,17(34),18(22),19-nonaen-12-one] | IC50 (EGFR Exon19Del/T790M; [21]): 13 nM; IC50 [1, 22]: 20 nM; IC50 (EGFR (d746-750 C797S); [23]): 560 nM; IC50 (EGFR L858R/T790M; [24]): 25 nM; IC50 (EGFR[T790M/C797S/L858R]; [25]): 36 nM; IC50 (EGFR wild type; [26]): > 5000 nM; IC50 (EGFR (C797S L858R); [27]): 28 nM
